No end group written: not given here.
Tests used:
guinea-pig taenia coli = conditions: apamin (100 μM)
Description: 2 cm strips of teania coil with intact Auerbach's plexus, but which had been stripped of the mucosa, were suspended in Kreb's solution under 1 g passive tension, and contracted with histamine (1 μM) to induce active tension.

mouse trachea = conditions: for increase in Isc in presence of indomethacin: cyclooxygenase inhibitor indomethacin; for change in Isc: luminally applied
Excerpt: Mice were killed by a lethal overdose of sodium pentobarbitone and the tracheae rapidly excised. The trachea was opened longitudinally through the ventral cartilage rings to make a fiat sheet. Each sheet of trachea was mounted between two perspex chambers so that the mucosal (luminal) and submucosal and bathed with warmed, oxygenated Krebs' solution, independently on each side. Electrodes in the chambers allowed recordings of transepithelial potential difference using an amplifier. The tissue was voltage clamped at 0 mV by passing a current from the amplifier via another set of electrodes in the chambers. The amount of current required to maintain voltage at 0 mV is defined as the short circuit current (Isc) and is conventionally used as a measure of all ionic fluxes across the preparation.
(§1) After an equilibration time of 30 min, compounds for testing and drugs to elucidate the mechanism of any changes in Isc to the test compounds were added to either side of the tracheal epithelium (ie to either bath). Compounds used for increasing Isc were PGE2, adenosine 5′-triphosphate (ATP), uridine 5′-triphosphate (UTP) and the PAR1-, PAR2- and PAR4-activating peptides, SFLLRN (SEQ ID NO:1) and SLIGRL (SEQ ID NO:2) and GYPGQY (SEQ ID NO:6), respectively. These stimulants were added cumulatively with controls for any time-dependent tachyphylaxis.

[1] = biological target: PAR1-like receptor ("atypical" thrombin receptor) of human coronary artery endothelial cells (human); experiment: cell-based or functional assay
[2] = biological target: mouse protease activated receptor 1 (PAR1), in mouse bronchus and trachea tissue (mouse) (UniProt P30558); experiment: cell-based or functional assay
Chain of mouse protease activated receptor 1 (PAR1), in mouse bronchus and trachea tissue (mouse) (P30558 42-430): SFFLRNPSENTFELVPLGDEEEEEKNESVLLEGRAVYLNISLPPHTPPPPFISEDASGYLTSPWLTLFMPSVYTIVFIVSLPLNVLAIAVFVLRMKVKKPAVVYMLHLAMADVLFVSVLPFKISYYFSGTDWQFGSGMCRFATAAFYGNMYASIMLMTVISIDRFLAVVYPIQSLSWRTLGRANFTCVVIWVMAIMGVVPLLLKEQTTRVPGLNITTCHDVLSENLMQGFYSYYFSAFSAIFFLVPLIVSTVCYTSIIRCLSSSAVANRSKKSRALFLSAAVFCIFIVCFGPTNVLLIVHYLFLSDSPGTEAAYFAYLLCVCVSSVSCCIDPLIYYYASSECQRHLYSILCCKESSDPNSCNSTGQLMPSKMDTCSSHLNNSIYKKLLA

[3] = test system: human bronchial epithelium; conditions: after amiloride
Description: Human airways were obtained from discarded sections of lungs of patients undergoing lobectomy operations at the Royal Melbourne Hospital, Melbourne, Australia usually for lung cancer. The dissection and set up were as described above for the mouse trachea.
as §1

[4] = test system: human coronary artery rings; conditions: for maximum (Rmax % contraction reversal): endothelium-intact, control; for relaxation after removal of the endothelium: endothelium-denuded
monkey small bronchi = test system: monkey small bronchi
Excerpt: The experimental details are similar to those for the mouse isolated bronchi. Briefly, approximately 2 mm long rings of small bronchi were mounted on wire hooks. In each trace, half log concentrations are not depicted for clarity.

PAR1 = PAR1 (Homo sapiens, UniProt P25116); conditions: concentrations up to 1 mM, human platelets; cited from earlier work
Chain of PAR1 (P25116 22-425): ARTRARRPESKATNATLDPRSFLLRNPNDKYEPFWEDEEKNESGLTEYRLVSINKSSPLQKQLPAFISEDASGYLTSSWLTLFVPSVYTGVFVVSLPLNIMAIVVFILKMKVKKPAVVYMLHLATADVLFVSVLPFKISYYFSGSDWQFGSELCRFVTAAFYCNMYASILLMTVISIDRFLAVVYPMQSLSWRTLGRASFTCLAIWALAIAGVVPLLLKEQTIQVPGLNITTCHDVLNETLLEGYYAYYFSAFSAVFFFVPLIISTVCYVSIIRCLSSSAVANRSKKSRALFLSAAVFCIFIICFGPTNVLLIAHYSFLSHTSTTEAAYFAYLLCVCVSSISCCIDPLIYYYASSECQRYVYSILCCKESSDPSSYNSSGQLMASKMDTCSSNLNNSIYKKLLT

[5] = biological target: T1, mouse protease activated receptor 2 (PAR2), in mouse bronchus and trachea tissue (mouse) (UniProt P55086); experiment: cell-based or functional assay
T1 sequence (looked up): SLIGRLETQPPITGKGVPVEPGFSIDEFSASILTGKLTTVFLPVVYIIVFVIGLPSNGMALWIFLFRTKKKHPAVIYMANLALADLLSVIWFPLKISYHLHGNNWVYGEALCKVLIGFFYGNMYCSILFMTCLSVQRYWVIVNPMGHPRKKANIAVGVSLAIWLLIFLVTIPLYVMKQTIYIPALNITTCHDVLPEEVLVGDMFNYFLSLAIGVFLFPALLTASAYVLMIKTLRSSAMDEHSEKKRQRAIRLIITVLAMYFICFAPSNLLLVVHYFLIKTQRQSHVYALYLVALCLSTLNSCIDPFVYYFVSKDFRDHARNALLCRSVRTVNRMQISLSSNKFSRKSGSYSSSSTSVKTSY

[6] = biological target: guinea-pig protease activated receptor 2 (PAR2), in guinea-pig bronchus tissue (guinea-pig); experiment: cell-based or functional assay
[7] = biological target: T2, rat protease activated receptor 2 (PAR2), in rat airway tissue (rat) (UniProt Q63645); experiment: cell-based or functional assay
T2 sequence (looked up): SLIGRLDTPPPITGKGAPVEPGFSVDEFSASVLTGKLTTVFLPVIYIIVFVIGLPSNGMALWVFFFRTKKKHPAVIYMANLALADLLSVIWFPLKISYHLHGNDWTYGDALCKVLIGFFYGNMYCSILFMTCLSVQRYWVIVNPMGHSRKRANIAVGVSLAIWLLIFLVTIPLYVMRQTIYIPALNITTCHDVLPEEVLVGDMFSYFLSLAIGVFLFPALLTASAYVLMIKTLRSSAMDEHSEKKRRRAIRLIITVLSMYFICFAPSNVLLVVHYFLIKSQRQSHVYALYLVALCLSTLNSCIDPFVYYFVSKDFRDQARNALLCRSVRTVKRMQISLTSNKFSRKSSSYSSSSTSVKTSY

mouse bronchial rings = conditions: for response of epithelium-intact bronchi: contracted to approximately 40% Fmax with carbachol; for response in presence of cyclooxygenase inhibitors: indomethacin (3 μM) or aspirin (100 μM)
Excerpt: (§2) The right and left main bronchi and their first order branches of specific pathogenfree (SPF) Balb/c mice (15–20 g; either sex), Hartley tricolour guinea-pigs (300–400 g; male) and Sprague-Dawley rats (200–350 g; either sex), all killed by either cervical dislocation or overdosed (i.p.) with sodium pentobarbitone, were cleared of surrounding connective tissue, nerves and blood vessels under a dissecting microscope and placed in cold, carbogenated (95% v/v O2,5% v/v CO2) Krebs solution (Kemp and Cocks, 1997). Human airway preparations (0.5–1 mm in external diameter) were dissected from lungs of cancer patients undergoing thoracotomy at The Royal Melbourne Hospital, Melbourne, Australia. The epithelium was removed from some bronchi either by mechanical abrasion of the luminal surface (guinea-pig) or by brief, gentle intraliminal flushing of the airways with Krebs containing 0.1% v/v Triton-X100 (mouse and rat). In each case, removal of the epithelium was verified histologically in 8 μm formalin-fixed, paraffin sections stained with haemotoxylin and eosin. Ring segments (approximately 2 mm long) of bronchi and bronchioles were mounted in Krebs (37° C.) on stainless steel wires (40 μm) in dual channel (5 ml) Mulvany-Halpern myographs (JP Trading, Aarhus, Denmark) to record changes in isometric force (Kemp and Cocks, 1997). After equilibration at a passive force between 0.2 g and 0.3 g, tissues were contracted to their maximum levels of active force (Fm.),) with acetylcholine (30 μM), thoroughly washed with Krebs and allowed to return to baseline. Various drugs or their vehicles were then added and 30 min later all tissues were contracted to approximately 40% Fmax with titrated concentrations of carbachol (10–500 nM). The L-type voltage-operated Ca^2+ channel inhibitor, nifedipine (0.3 μM) was added to all mouse and rat tissues after obtaining Fmax to control characteristic phasic contractile activity with carbachol.
If no response occurred the tissues were then exposed to cumulative concentrations of either SLIGRL—NH2 (SEQ ID NO:2) or SFLLRN—NH2 (SEQ ID NO:1) (0.1–30 μM).
(§3) Results are presented as mean±s.e mean and pEC50 (sensitivity) values were calculated by fitting concentration-response curves to a four parameter logistic function (Kemp and Cocks, 1997) using Graphpad Prism (version 2.0). Statistical comparison of mean pEC50 and maximum response (Rmax) values were compared by two-tailed unpaired Student's t-tests or one way analysis of variance (ANOVA) with Tukey-Kramer's t-tests for multiple comparisons. P<0.05 was accepted as significant. Unless specified, all averaged data are from n>5 experiments.
Mouse bronchus preparations were carefully mounted horizontally on fine (40 μm) stainless steel wires attached to the jaws of a Mulvany-Halpem myograph. After 60 min at 37° C., all rings were stretched to 0.5 g passive force, which had been determined in preliminary experiments to be optimal, and allowed to recover from that stretch for a further 30 min. Maximum contraction (Fmax) in each tissue was then determined with exogenously applied acetylcholine (ACh; 30 μM) followed by washout. A further 30 min equilibration time was allowed before the tissues were actively contracted to between 20% and 60% of their individual Fm.” values with titrated concentrations of carbachol (10–100 nM). […] In some cases, tissues were treated with a range of drugs prior to contraction to approximately […] Fmax. These included the cyclooxygenase inhibitors indomethacin and aspirin, the nitric oxide (NO) synthase inhibitor N′-nitro-L-(L-NOARG), the NO scavenger oxyhaemoglobin (Hb0), and the L-voltage-operated Cat' channel inhibitor nifedipine.
After an initial passive stretch to 0.5 g (Ti) and recovery, each ring was contracted with acetylcholine (Ach; 30 μM). The contraction was taken as the tissue maximum and referred to as Fmax.

human distal colon = test system: human distal colon
Description: Human distal colon strips obtained at bowel resection were suspended at 1 g passive isometric force and contracted with substance P (30 μM) to maintain a steady level of active tension.

[8] = test system: isolated human bronchioles
Description: Small (500 μm) bronchioles were carefully dissected from discarded sections of human left lung which had been excised at surgery from two male lung cancer patients (Royal Melbourne Hospital, Melbourne, Australia).
Dissection of these bronchioles required a fine-dissecting microscope and an assistant to continually flood the preparation with cold oxygenated Krebs solution to remove air bubbles and keep the tissue viable. Bronchioles approximately 2 mm in length were then mounted on […] diameter stainless wires in a Krebs solution-filled myograph chamber, as described for the mouse bronchus preparation above.

rat isolated bronchi = test system: rat isolated bronchi
Excerpt: as §2
as §3, with “All cumulative responses (relaxations and contractions) were normalised as percentages of the initial level of active force to carbachol. Results” for “Results”

Compound: Nc1ncnc2c1ncn2[C@@H]1O[C@H](COP(=O)(O)OP(=O)(O)OP(=O)(O)O)[C@@H](O)[C@H]1O [ATP, adenosine 5′-triphosphate]
- relaxation in presence of apamin (guinea-pig taenia coli): no relaxation
- increase in Isc in presence of indomethacin (mouse trachea): unaffected
- change in Isc (mouse trachea): rapid initial rise in Isc usually followed by some degree of recovery until a steady plateau was reached

Compound: SFLLRN-NH2 (human PAR1 tethered ligand sequence, thrombin receptor-activating peptide)
- pEC50, relaxation of human coronary artery after desensitisation to thrombin and trypsin [1]: 6.4 -log M
- pEC50, relaxation of human coronary artery, untreated tissue [1]: 7 -log M
- pEC50, relaxation of precontracted human coronary artery segments [1]: 6.9 -log M
- pEC50, relaxation of carbachol-contracted mouse bronchial rings [2]: 5.6 -log M
- pEC50, relaxation of first generation branches of the mouse main bronchi [2]: 5.5 -log M

Compound: SLIGKV-NH2
- change in Isc [3]: relatively poor response
- maximum (Rmax % contraction reversal) [4]: 39.9±11.0%
- effect on monkey small bronchi (monkey small bronchi): smooth muscle relaxing effects

Compound: SLIGKVD-NH2
- activation of PAR1 (PAR1): does not activate PAR1

Compound: SLIGRL-NH2 (mouse PAR2 tethered ligand sequence, PAR2 activating peptide)
- pEC50 (sensitivity), relaxation of carbachol-contracted mouse bronchial rings [5]: 5.6 -log M
- pEC50, relaxation of first generation branches of the mouse main bronchi [5]: 5.1 -log M
- pEC50, epithelium-dependent relaxation of guinea-pig isolated bronchi [6]: 5.4 -log M
- pEC50, epithelium-dependent relaxation of rat isolated bronchi [7]: 5.5 -log M
- pEC50, relaxation of rat bronchioles [7]: 5.1 -log M

Compound: alpha-thrombin (bovine serum, Sigma) (from UniProt P00735 318-625) (enzyme)
- pEC50 (sensitivity), endothelium-dependent relaxation of U46619-contracted human coronary artery rings [1]: 2.5 log U/ml

Compound: prostaglandin E2 [PGE2, reference compound]
- response of epithelium-intact bronchi (mouse bronchial rings): potent and maximum relaxation
- relaxation after removal of the epithelium (mouse bronchial rings; epithelium removed with 0.1% v/v Triton X-100): could still sensitively relax
- maximum relaxation (Rmax) (mouse bronchial rings; main bronchi with epithelium, % of initial force to carbachol): 100%
- sensitivity (pEC50) (mouse bronchial rings; main bronchi with epithelium, contracted with carbachol): 8.2±0.1 −log M
- increase in Isc in presence of indomethacin (mouse trachea): unaffected
- change in Isc (mouse trachea): rapid initial rise in Isc usually followed by some degree of recovery until a steady plateau was reached

Compound: thrombin
- response of human distal colon (human distal colon): did not result in relaxation
- response of human bronchioles [8]: activity dependent relaxation that was reversed by indomethacin
- response of rat bronchial rings (rat isolated bronchi): small relaxation
- response of epithelium-intact bronchi (mouse bronchial rings): only poor indomethacin sensitive relaxation at high concentrations
- response in presence of cyclooxygenase inhibitors (mouse bronchial rings): converted to contractions by indomethacin
- relaxation after removal of the endothelium [4]: abolished
- maximum (Rmax % contraction reversal) [4]: 88.9±4.9%
- effect on monkey small bronchi (monkey small bronchi): smooth muscle relaxing effects

Compound: trypsin
- response of human bronchioles [8]: activity dependent relaxation that was reversed by indomethacin
- response of epithelium-intact bronchi (mouse bronchial rings): activity-dependent relaxation
- response in presence of cyclooxygenase inhibitors (mouse bronchial rings): blocked by indomethacin
- relaxation after removal of the endothelium [4]: abolished
- maximum (Rmax % contraction reversal) [4]: 88.1±2.9%
- effect on monkey small bronchi (monkey small bronchi): smooth muscle relaxing effects

Compound: trypsin (bovine pancreas, Worthington Biochem) (from UniProt P00760 24-246) (enzyme)
- pEC50 (sensitivity), endothelium-dependent relaxation of U46619-contracted human coronary artery rings [1]: 1.7 log U/ml
